Literature values in US9622997B2, “Methods for treating insomnia” (Lynn Health Science Institute, Inc., priority 2012, dated 2017).
Read-outs that look alike come from different tables or passages of the source.

Experiments:
[1] = system: 2 hour phase-advance study population; settings: cited from earlier work; for TST: ↑ increase compared to placebo; for WASG: ↓ decrease compared to placebo
[2] = system: 2 hour phase-advance study population; settings: ↓ decrease compared to placebo, cited from earlier work
[3] = system: 4 hour phase-advance study population; settings: 10 mg, cited from earlier work
[4] = system: 3 hour phase-advance study population; parameters: TST: unit not given here; settings: cited from earlier work; for TST: ↑ increase compared to placebo; for WASG: ↓ decrease compared to placebo
[5] = system: 4 hour phase-advance study population; settings: 10 mg, cited from earlier work; remark: listed apart in the source
[6] = recent study; cited from earlier work
[7] = system: 3 hour phase-advance study population; settings: 6 mg, cited from earlier work
[8] = system: First-night effect (no PA) study population; settings: cited from earlier work; for TST: ↑ increase compared to placebo; for WASG: ↓ decrease compared to placebo, NS

In the case of CC(=O)N(C)c1cccc(-c2ccnc3c(C(=O)c4cccs4)cnn23)c1 [Indiplon], the TST ([1]; 10 mg) is listed as “↑ 11.6”, the TST ([1]; 20 mg) is listed as “↑ 20.6” and the WASG ([1]; 20 mg) is listed as “↓ 7.4 min”. The WASG ([1]; NS, 10 mg) was “↓ 1.2^NS min”.

For CN1C(=O)C(O)N=C(c2ccccc2)c2cc(Cl)ccc21 (stereo not drawn) [Temazepam], the WASG ([2]; NS, temazepam 15 mg) is listed as “↓ 7.0^NS min”.

For Cc1ccc(-c2nc3ccc(C)cn3c2CC(=O)N(C)C)cc1 [Zolpidem], the WASG ([2]; zolpidem 10 mg, listed as zolpidem) is listed as 9.4 min, the WASG ([2]; zolpidem 10 mg) is listed as “↓ 9.4 min” and the TST ([3]; ↑ increase compared to placebo) is listed as “↑ 47.8”. The WASG ([3]; ↓ decrease compared to placebo) was “↓ 24.7 min”, the TST ([4]; 10 mg) was “↑ 35.7” and the TST ([4]; 15 mg) was “↑ 37.3”. The TST ([4]; NS, 5 mg) was “↑ 35.6^NS”, the TST ([4]; NS, 20 mg) was “↑ 12.8^NS” and the WASG ([4]; 20 mg) was “↓ 32.3 min”. The WASG ([4]; NS, 5 mg) was “↓ 22.5^NS min”, the WASG ([4]; NS, 10 mg) was “↓ 31.2^NS min” and the WASG ([4]; NS, 15 mg) was “↓ 26.9^NS min”. The TST ([5]; ↑ increase compared to placebo) was “↑ 52.8”, the WASG ([5]; ↓ decrease compared to placebo) was “↓ 35.1 min” and the “effect on sleep related GER (acid contact time)” value [6] was “markedly prolonging acid contact time”.

For CN(C)CCC=C1c2ccccc2COc2ccccc21 [Doxepin], the TST ([7]; ↑ increase compared to placebo) is listed as “↑ 51.1”, the SOL ([7]; ↓ decrease compared to placebo) is listed as “↓ 15.9” and the WASG ([7]; ↓ decrease compared to placebo) is listed as “↓ 40.0 min”.

For CCC(=O)NCC[C@@H]1CCc2ccc3c(c21)CCO3 [Ramelteon], the TST ([8]; 8 mg) is given as “↑ 17.1”, the TST ([8]; 16 mg) is given as “↑ 13.4” and the WASG ([8]; 8 mg) is given as “↓ 5.0^NS min”. For the same compound, the WASG ([8]; 16 mg) was “↓ 2.5^NS min”.
